What was measured:
Assay type in all cases: cell-based
[1] = system: General bacteria (T.A.B), bacteria derived from flavor syrup; assay: Minimum inhibitory concentration (MIC), paper disc diffusion method, general bacteria; details: legend not given
Method: (§1) [table] The minimum inhibitory concentration (MIC) was conducted to confirm the antibacterial activity of each antibacterial agent and the minimum concentration showing antibacterial activity against the target strain, and the paper disc diffusion method was used as the experimental method. […] It was confirmed that if the bacteria had antibacterial activity, the proliferation of bacteria was inhibited as a clear zone was created around the paper.

[2] = system: Spores (B. subtilis); assay: Minimum inhibitory concentration (MIC), paper disc diffusion method, spores; details: legend not given
Method: as §1

[3] = system: Fungi (Asp. niger); assay: Microbial challenge test (MCT) in sucrose-zero vanilla syrup, fungi; details: for fungi count: single concentration as printed in the row; for fungi count, Max.: Max. concentration of agent; for fungi count, Min.: Min. concentration of agent
Method: (§2) Subsequently, the microbial challenge test (MCT) was conducted in the following order. The experiment was applied to the vanilla syrup, which is the representative among the sucrose syrup, the vanilla syrup, and the red grapefruit syrup, and the applied strains and analysis conditions are shown in Table 14.
(§3) The microbial challenge test (MCT) experiment conditions are as follows: 1) prepare a sucrose-zero vanilla syrup; 2) prepare general bacteria/fungi/spores that have completed proliferation; 3) inject 10^3 cfu/ml of bacteria into a sterilized glass container (100 ml); 4) fill 3) with sucrose-zero vanilla syrup at the filling temperature (80° C. or higher); 5) let it stand after cooling; 6) one day after the cooling of the stationary sample was completed, culture was performed on a weekly basis; and 7) verify the trend of bacterial proliferation or decline for each natural antibacterial agent for 4 weeks.

[4] = system: Fungi (Asp. niger); assay: Minimum inhibitory concentration (MIC), paper disc diffusion method, fungi; details: legend not given
Method: as §1

[5] = system: Spores (B. subtilis); assay: Microbial challenge test (MCT) in sucrose-zero vanilla syrup, spores; details: for spores count: single concentration as printed in the row; for spores count, Max.: Max. concentration of agent; for spores count, Min.: Min. concentration of agent
Method: as §2, §3

[6] = system: General bacteria, bacteria derived from flavor syrup; assay: Microbial challenge test (MCT) in sucrose-zero vanilla syrup, general bacteria; details: for general bacteria count: single concentration as printed in the row; for general bacteria count, Max.: Max. concentration of agent; for general bacteria count, Min.: Min. concentration of agent
Method: as §2, §3

[7] = immediately after inoculation of target bacteria

C/C=C/C=C/C(=O)[O-].[K+] [Potassium sorbate, reference compound]
Antibacterial activity (clear zone), general bacteria (T.A.B) ([1]; 300 ppm): ∘
Antibacterial activity (clear zone), general bacteria (T.A.B) ([1]; 400 ppm): ∘
Antibacterial activity (clear zone), general bacteria (T.A.B) ([1]; 500 ppm): ∘
Antibacterial activity (clear zone), general bacteria (T.A.B) ([1]; 1,000 ppm): ∘
Antibacterial activity (clear zone), spores ([2]; 300 ppm): ∘
Antibacterial activity (clear zone), spores ([2]; 400 ppm): ∘
Antibacterial activity (clear zone), spores ([2]; 500 ppm): ∘
Antibacterial activity (clear zone), spores ([2]; 1,000 ppm): ∘
fungi count ([3]; after 1 week): 63
fungi count ([3]; after 2 weeks): 66
fungi count ([3]; after 3 weeks): 60
fungi count ([3]; after 4 weeks): 58
fungi count [3, 7]: 68
Antibacterial activity (clear zone), fungi ([4]; 300 ppm): ∘
Antibacterial activity (clear zone), fungi ([4]; 400 ppm): ∘
Antibacterial activity (clear zone), fungi ([4]; 500 ppm): ∘
Antibacterial activity (clear zone), fungi ([4]; 1,000 ppm): ∘
spores count ([5]; after 1 week): 873
spores count ([5]; after 2 weeks): 876
spores count ([5]; after 3 weeks): 850
spores count ([5]; after 4 weeks): 860
spores count [5, 7]: 880
general bacteria count ([6]; after 1 week): 93
general bacteria count ([6]; after 2 weeks): 83
general bacteria count ([6]; after 3 weeks): 80
general bacteria count ([6]; after 4 weeks): 78
general bacteria count [6, 7]: 98

E-polylisine [E-polylysine]
Antibacterial activity (clear zone), general bacteria (T.A.B) ([1]; 200 ppm): ∘
Antibacterial activity (clear zone), general bacteria (T.A.B) ([1]; 300 ppm): ∘
Antibacterial activity (clear zone), general bacteria (T.A.B) ([1]; 400 ppm): ∘
Antibacterial activity (clear zone), general bacteria (T.A.B) ([1]; 500 ppm): ∘
Antibacterial activity (clear zone), general bacteria (T.A.B) ([1]; 1,000 ppm): ∘
Antibacterial activity (clear zone), spores ([2]; 400 ppm): ∘
Antibacterial activity (clear zone), spores ([2]; 500 ppm): ∘
Antibacterial activity (clear zone), spores ([2]; 1,000 ppm): ∘
fungi count, Max. ([3]; after 1 week): 135
fungi count, Min. ([3]; after 1 week): 147
fungi count, Max. ([3]; after 2 weeks): 130
fungi count, Min. ([3]; after 2 weeks): 137
fungi count, Max. ([3]; after 3 weeks): 128
fungi count, Min. ([3]; after 3 weeks): 130
fungi count, Max. ([3]; after 4 weeks): 125
fungi count, Min. ([3]; after 4 weeks): 128
fungi count, Max. [3, 7]: 138
fungi count, Min. [3, 7]: 150
Antibacterial activity (clear zone), fungi ([4]; 400 ppm): ∘
Antibacterial activity (clear zone), fungi ([4]; 500 ppm): ∘
Antibacterial activity (clear zone), fungi ([4]; 1,000 ppm): ∘
spores count, Max. ([5]; after 1 week): 720
spores count, Min. ([5]; after 1 week): 870
spores count, Max. ([5]; after 2 weeks): 773
spores count, Min. ([5]; after 2 weeks): 850
spores count, Max. ([5]; after 3 weeks): 780
spores count, Min. ([5]; after 3 weeks): 800
spores count, Max. ([5]; after 4 weeks): 720
spores count, Min. ([5]; after 4 weeks): 830
spores count, Max. [5, 7]: 720
spores count, Min. [5, 7]: 880
general bacteria count, Max. ([6]; after 1 week): 126
general bacteria count, Min. ([6]; after 1 week): 129
general bacteria count, Max. ([6]; after 2 weeks): 115
general bacteria count, Min. ([6]; after 2 weeks): 120
general bacteria count, Max. ([6]; after 3 weeks): 110
general bacteria count, Min. ([6]; after 3 weeks): 120
general bacteria count, Max. ([6]; after 4 weeks): 108
general bacteria count, Min. ([6]; after 4 weeks): 110
general bacteria count, Max. [6, 7]: 129
general bacteria count, Min. [6, 7]: 132
